Laboratory results published in ChEMBL document CHEMBL1201862, “PubChem BioAssay data set” (2004).
Calls of active or inactive are those of the source.

How the values were obtained:
[1] = biological target: Adenosylmethionine-8-amino-7-oxononanoate aminotransferase (Mycobacterium tuberculosis, UniProt P9WQ81); test: Mycobacterium tuberculosis BioA enzyme inhibitor Measured in Biochemical System Using Plate Reader - 2163-02_Inhibitor_Dose_CherryPick_Activity.; format: functional, Mycobacterium tuberculosis UT205
[2] = biological target: 26S proteasome non-ATPase regulatory subunit 14 (Homo sapiens, UniProt O00487); test: inhibition of proteasome subunit RPN11 – biochemical, fluorescence polarization, uHTS hits, confirmation (AID 602368); format: functional
[3] = biological target: 72 kDa type IV collagenase (Homo sapiens, UniProt P08253); test: Dose Response validation of uHTS RPN11 inhibitor hits using a MMP-2 Fluorescence assay.; format: functional
Prothrombin = Prothrombin (Bos taurus, UniProt P00735); test: thrombin inhibition, dose response, biochemical, fluorescence polarization, uHTS hits (AID 602369); format: functional
[4] = NIH-3T3 fibroblast cytotoxicity, dose response, cytotoxicity control, cell-based, fluorescence, Alamar Blue, secondary assay (AID 2327); format: functional;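 note: NIH-3T3 mouse fibroblasts cultured with fluconazole at 8 µg/mL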
[5] = C. albicans growth with fluconazole, confirmation, fluorescence, retest (AID 2467); format: functional, cell-based
[6] = inhibitors of intracellular T. cruzi replication, confirmation, NIH3T3 host cells, beta-gal luminescence (AID 2044); format: functional, cell-based;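 note: intracellular parasites grown in NIH/3T3 mouse fibroblasts as host cells; luminescent beta-galactosidase reporter signal from transgenic T. cruzi replicating inside host cells; inhibitors lower the luminescence signal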
[7] = cytotoxicity toward NIH3T3 fibroblasts, dose response, counter-screen, cell-based, ATP luminescence, mouse fibroblasts (AID 2010); format: functional;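 note: cells exposed to compound for about 90 hours before reading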
[8] = cytotoxicity in MIN6 insulinoma cells, dose response, cytotoxicity control, cell-based, mouse insulinoma (AID 2122); format: functional;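 note: confirmatory high-throughput counterscreen run to flag cytotoxic compounds; mouse MIN-6 beta cells carrying an insulin promoter eGFP reporter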
[9] = insulin promoter down-regulators in MIN6 cells, imaging, high-content screening, mouse beta cells (AID 1628); format: functional
HeLa = test: HeLa cell cytotoxicity, dose response, cytotoxicity control for MITF activator project, CellTiter-Glo luminescence, cherry-pick samples (AID 540259); format: functional, cell-based; conditions: Homo sapiens
Escherichia coli [10] = test: microbe, parasite or virus in culture
Escherichia coli [11] = test: microbe, parasite or virus in culture; remark: listed apart in the source
[12] = biological target: Peroxisome proliferator-activated receptor gamma/Nuclear receptor coactivator 3 (Homo sapiens, UniProt P37231); test: TR-FRET dose response biochemical High Throughput Screening assay for agonists of the steroid receptor coactivator 3 (SRC-3) recruitment by the peroxisome proliferator-activated receptor gamma (PPAR gamma): non-selective agonists. [Related pubchem assays: 1301 (Confirmation screen.), 1048 (Primary screen.)]; format: functional
[13] = biological target: Peroxisome proliferator-activated receptor gamma/Nuclear receptor coactivator 2 (Homo sapiens, UniProt P37231); test: TR-FRET dose response biochemical High Throughput Screening assay for agonists of the steroid receptor coactivator 2 (SRC-2) recruitment by the peroxisome proliferator-activated receptor gamma (PPAR gamma): non-selective agonists. [Related pubchem assays: 1297, 1032 ]; format: functional
[14] = HEp-2 cell cytotoxicity, dose response, cytotoxicity control for RSV inhibitor project, HTS (AID 2410); format: functional; conditions: human respiratory syncytial virus
[15] = biological target: Peroxisome proliferator-activated receptor gamma/Nuclear receptor coactivator 1 (Homo sapiens, UniProt P37231); test: TR-FRET dose response biochemical High Throughput Screening assay for agonists of the steroid receptor coactivator 1 (SRC-1) recruitment by the peroxisome proliferator-activated receptor gamma (PPAR gamma): non-selective agonists. [Related pubchem assays (depositor defined):AID1300, AID1808, AID504735, AID631]; format: protein assay
[16] = biological target: T1, Alkaline phosphatase, tissue-nonspecific isozyme (Homo sapiens, UniProt P05186); test: TNAP enzyme inhibition by screening hits, dose response, selectivity assay for mouse IAP inhibitor project, biochemical, human TNAP, uHTS hits (AID 488906); format: functional
T1 sequence (P05186 whole entry): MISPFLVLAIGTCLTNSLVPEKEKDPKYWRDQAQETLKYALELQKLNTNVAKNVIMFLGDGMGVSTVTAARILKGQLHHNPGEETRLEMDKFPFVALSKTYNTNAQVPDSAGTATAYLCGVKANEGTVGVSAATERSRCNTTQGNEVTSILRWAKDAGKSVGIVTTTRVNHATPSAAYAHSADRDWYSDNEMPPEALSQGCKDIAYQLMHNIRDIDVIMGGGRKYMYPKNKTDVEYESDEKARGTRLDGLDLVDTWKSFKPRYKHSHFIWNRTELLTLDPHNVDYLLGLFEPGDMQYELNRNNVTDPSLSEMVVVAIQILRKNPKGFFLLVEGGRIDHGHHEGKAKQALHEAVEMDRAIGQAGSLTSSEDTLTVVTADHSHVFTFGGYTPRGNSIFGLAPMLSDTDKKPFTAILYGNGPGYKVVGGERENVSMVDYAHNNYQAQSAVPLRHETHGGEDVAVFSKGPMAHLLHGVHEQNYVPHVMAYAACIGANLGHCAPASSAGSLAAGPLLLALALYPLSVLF

[17] = biological target: Intestinal-type alkaline phosphatase (Mus musculus, UniProt P24822); test: PubChem AID 488785; format: functional
[18] = biological target: Intestinal-type alkaline phosphatase (Homo sapiens, UniProt P09923); test: inhibition of human intestinal alkaline phosphatase – biochemical, dose response (AID 488876); format: functional
[19] = Luminescence Cell-Based Dose Response HTS to Identify Activators of Luciferase Translation or Activity in H4 […] Cells. [Related pubchem assays: 1829 (Project Summary), 1814 (Primary HTS)]; format: functional
[20] = Luminescence Cell-Based Dose Confirmation HTS to Identify Activators of 5'UTR Stem-Loop Driven Alpha-Synuclein mRNA Translation in H4 Neuroglioblastoma Cells. [Related pubchem assays: 1829 (Project Summary), 1814 (Primary HTS)]; format: functional
H4 = test: Luminescence Cell-Based Dose Response HTS to Identify Activators of 5'UTR Stem-Loop Driven Prion Protein mRNA Translation in H4 Neuroglioblastoma Cells. [Related pubchem assays: 1829 (Project Summary), 1814 (Primary HTS)]; format: functional; conditions: Homo sapiens
[21] = biological target: G-protein coupled receptor 55 (Homo sapiens, UniProt Q9Y2T6); test: GPR55 agonists via beta-arrestin recruitment, primary screen, imaging, U2OS cells, beta-arrestin-GFP redistribution (AID 1961); format: functional
[22] = biological target: T2, Heat shock factor protein 1 (Mus musculus, UniProt P38532); test: inhibition of MG132-induced HSE-luciferase signal, confirmation, cell-based, NIH3T3, luminescence, dose retest (AID 2382); format: functional;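 note: NIH3T3 fibroblasts with HSF1-driven luciferase reporter stressed by proteasome inhibitor MG132; luminescence from HSF1-driven luciferase expression after 8 hours of MG132 stress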
T2 sequence (P38532 whole entry): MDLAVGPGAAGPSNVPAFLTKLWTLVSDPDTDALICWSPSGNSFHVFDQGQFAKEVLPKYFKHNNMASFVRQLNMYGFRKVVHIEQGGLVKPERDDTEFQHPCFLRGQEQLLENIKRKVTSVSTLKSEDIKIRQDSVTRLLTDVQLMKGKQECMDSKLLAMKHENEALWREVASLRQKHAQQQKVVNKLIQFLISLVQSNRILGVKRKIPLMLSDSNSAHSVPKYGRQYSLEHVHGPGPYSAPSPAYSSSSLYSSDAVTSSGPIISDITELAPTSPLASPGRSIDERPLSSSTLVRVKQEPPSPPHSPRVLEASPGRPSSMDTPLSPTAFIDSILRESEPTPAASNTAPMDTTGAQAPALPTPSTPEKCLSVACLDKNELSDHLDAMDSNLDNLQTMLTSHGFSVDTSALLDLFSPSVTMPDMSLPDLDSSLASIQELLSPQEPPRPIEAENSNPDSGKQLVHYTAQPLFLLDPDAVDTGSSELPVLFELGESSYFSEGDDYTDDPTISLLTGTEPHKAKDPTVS

[23] = biological target: FAD-linked sulfhydryl oxidase ALR (Homo sapiens, UniProt P55789); test: inhibitors of human ALR sulfhydryl oxidase, dose response, biochemical, H2O2 detection, luminescence, cherry-pick (AID 493248)
Aminopeptidase N = biological target: T3, Aminopeptidase N (Plasmodium falciparum FcB1/Columbia, UniProt O96935); test: P. falciparum M1AAP inhibitors, biochemical, fluorogenic H-Leu-NHMec substrate, 1536-well (AID 1445); parameters: species or system Plasmodium falciparum 3D7, 3D7
T3 sequence (O96935 whole entry): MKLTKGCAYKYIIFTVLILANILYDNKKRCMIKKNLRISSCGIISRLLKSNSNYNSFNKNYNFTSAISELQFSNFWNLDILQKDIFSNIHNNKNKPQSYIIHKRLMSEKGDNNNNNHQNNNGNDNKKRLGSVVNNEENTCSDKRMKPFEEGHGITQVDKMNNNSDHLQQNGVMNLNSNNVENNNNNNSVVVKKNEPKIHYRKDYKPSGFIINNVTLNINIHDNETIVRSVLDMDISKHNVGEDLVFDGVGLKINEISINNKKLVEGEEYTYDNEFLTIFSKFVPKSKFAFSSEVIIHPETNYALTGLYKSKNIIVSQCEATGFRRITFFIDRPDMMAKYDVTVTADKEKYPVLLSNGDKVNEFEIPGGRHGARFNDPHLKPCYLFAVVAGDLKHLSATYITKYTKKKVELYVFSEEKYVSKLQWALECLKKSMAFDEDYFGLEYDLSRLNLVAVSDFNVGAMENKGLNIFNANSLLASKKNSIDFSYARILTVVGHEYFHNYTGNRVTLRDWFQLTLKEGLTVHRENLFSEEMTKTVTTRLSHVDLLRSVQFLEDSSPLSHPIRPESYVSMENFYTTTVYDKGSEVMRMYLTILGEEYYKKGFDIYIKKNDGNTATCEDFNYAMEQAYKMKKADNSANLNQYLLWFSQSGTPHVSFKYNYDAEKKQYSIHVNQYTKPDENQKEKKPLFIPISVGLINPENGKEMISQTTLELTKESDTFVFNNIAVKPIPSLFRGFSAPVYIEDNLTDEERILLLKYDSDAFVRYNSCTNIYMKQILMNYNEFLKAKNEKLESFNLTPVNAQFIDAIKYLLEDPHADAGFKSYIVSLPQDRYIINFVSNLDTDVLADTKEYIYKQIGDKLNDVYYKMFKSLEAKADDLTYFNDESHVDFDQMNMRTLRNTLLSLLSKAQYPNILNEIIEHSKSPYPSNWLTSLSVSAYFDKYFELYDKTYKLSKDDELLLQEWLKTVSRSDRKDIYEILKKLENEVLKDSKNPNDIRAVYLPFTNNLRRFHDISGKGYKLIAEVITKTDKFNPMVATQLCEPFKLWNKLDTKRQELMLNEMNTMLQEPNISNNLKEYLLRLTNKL

Chain of 72 kDa type IV collagenase (P08253 whole entry): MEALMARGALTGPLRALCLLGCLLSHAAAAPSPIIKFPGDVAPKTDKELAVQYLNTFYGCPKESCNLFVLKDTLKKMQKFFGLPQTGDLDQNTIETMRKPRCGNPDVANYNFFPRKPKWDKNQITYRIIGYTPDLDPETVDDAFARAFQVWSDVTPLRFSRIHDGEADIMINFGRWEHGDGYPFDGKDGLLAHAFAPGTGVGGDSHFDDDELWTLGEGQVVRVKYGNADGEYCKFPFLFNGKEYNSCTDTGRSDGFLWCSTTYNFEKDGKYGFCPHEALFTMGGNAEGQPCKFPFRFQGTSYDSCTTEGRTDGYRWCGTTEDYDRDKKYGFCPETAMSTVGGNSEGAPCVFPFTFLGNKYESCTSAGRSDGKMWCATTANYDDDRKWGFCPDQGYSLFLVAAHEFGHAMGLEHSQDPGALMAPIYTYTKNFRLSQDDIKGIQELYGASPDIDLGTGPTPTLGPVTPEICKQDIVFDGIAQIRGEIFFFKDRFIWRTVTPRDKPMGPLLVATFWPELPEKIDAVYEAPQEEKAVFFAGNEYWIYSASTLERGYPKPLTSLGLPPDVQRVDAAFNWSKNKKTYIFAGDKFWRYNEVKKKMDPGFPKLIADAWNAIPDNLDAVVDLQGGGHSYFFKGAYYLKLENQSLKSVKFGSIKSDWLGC
Chain of 26S proteasome non-ATPase regulatory subunit 14 (O00487 whole entry): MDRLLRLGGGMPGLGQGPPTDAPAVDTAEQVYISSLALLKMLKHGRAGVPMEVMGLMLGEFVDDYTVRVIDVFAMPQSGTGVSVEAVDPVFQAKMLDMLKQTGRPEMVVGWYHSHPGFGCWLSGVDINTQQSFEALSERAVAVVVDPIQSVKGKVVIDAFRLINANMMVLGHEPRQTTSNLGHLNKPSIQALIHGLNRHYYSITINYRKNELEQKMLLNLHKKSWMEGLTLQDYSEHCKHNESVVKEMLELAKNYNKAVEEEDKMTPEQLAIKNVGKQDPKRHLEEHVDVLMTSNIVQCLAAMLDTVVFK
Chain of Adenosylmethionine-8-amino-7-oxononanoate aminotransferase (P9WQ81 whole entry): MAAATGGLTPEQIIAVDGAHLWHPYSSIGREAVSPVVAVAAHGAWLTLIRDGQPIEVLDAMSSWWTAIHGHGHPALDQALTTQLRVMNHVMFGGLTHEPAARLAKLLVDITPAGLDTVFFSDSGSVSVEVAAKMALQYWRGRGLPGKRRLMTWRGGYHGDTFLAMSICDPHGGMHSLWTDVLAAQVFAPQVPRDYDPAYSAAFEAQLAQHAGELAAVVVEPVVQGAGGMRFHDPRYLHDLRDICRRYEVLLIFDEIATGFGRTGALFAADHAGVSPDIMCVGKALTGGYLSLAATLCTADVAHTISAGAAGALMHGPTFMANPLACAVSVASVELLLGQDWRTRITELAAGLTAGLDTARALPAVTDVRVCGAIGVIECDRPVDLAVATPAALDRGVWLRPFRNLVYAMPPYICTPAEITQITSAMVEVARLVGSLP
Chain of Intestinal-type alkaline phosphatase (Homo sapiens, UniProt P09923) (P09923 whole entry): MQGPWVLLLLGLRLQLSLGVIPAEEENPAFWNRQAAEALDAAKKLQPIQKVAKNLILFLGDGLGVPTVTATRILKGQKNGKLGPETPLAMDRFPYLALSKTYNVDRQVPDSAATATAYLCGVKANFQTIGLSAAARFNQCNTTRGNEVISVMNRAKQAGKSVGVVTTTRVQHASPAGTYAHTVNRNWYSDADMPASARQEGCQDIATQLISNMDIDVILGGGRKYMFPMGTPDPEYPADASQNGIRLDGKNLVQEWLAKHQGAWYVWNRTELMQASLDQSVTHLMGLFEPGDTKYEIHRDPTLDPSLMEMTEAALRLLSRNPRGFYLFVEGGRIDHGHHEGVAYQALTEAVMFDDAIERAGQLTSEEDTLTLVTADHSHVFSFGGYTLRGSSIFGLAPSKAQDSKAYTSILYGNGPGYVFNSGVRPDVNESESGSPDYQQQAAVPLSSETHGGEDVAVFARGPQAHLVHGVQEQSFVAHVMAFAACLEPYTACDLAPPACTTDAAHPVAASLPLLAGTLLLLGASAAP
Chain of Intestinal-type alkaline phosphatase (Mus musculus, UniProt P24822) (P24822 whole entry): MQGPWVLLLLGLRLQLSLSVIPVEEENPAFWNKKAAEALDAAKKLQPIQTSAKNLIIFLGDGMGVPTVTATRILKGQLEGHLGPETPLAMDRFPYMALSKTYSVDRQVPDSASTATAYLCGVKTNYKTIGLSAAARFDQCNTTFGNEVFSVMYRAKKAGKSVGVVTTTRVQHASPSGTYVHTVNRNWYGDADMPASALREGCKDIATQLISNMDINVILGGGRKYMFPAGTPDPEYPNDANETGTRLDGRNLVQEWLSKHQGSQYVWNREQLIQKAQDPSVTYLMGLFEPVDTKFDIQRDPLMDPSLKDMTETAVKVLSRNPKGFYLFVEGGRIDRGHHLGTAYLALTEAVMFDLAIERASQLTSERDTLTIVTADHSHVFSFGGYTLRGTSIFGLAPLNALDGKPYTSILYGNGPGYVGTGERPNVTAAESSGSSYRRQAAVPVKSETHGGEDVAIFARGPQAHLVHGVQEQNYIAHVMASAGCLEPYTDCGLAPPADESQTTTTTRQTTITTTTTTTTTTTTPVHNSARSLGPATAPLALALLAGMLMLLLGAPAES
Chain of FAD-linked sulfhydryl oxidase ALR (P55789 whole entry): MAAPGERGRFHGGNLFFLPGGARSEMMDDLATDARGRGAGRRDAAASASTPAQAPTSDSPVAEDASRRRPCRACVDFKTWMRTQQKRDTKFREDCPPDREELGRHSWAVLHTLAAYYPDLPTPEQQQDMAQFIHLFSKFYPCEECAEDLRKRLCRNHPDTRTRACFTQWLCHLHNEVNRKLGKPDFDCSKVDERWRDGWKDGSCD
Chain of G-protein coupled receptor 55 (Q9Y2T6 whole entry): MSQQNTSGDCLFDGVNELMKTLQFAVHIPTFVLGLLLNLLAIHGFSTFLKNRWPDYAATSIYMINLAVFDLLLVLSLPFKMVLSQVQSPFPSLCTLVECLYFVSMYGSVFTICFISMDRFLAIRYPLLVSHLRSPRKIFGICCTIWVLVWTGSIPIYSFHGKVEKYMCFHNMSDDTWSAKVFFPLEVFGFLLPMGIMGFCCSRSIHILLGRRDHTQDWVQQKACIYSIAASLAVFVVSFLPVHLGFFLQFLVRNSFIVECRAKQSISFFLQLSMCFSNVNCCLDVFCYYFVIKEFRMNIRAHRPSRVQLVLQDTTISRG
Chain of Peroxisome proliferator-activated receptor gamma/Nuclear receptor coactivator 2 (P37231 whole entry): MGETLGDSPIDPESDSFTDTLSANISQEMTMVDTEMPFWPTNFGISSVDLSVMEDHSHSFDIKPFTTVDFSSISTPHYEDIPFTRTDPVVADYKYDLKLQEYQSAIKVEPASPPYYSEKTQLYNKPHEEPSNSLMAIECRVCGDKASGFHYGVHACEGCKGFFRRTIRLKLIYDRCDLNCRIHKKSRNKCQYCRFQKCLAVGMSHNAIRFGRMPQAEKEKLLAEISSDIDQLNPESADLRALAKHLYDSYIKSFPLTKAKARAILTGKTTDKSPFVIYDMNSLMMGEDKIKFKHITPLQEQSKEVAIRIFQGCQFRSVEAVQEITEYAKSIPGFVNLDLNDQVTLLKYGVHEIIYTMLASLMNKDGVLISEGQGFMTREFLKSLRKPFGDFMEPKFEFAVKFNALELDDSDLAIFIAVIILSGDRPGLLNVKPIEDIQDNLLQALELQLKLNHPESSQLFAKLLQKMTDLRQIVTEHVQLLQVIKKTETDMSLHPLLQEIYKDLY
Chain of Peroxisome proliferator-activated receptor gamma/Nuclear receptor coactivator 2 (Q15596 whole entry, further chain): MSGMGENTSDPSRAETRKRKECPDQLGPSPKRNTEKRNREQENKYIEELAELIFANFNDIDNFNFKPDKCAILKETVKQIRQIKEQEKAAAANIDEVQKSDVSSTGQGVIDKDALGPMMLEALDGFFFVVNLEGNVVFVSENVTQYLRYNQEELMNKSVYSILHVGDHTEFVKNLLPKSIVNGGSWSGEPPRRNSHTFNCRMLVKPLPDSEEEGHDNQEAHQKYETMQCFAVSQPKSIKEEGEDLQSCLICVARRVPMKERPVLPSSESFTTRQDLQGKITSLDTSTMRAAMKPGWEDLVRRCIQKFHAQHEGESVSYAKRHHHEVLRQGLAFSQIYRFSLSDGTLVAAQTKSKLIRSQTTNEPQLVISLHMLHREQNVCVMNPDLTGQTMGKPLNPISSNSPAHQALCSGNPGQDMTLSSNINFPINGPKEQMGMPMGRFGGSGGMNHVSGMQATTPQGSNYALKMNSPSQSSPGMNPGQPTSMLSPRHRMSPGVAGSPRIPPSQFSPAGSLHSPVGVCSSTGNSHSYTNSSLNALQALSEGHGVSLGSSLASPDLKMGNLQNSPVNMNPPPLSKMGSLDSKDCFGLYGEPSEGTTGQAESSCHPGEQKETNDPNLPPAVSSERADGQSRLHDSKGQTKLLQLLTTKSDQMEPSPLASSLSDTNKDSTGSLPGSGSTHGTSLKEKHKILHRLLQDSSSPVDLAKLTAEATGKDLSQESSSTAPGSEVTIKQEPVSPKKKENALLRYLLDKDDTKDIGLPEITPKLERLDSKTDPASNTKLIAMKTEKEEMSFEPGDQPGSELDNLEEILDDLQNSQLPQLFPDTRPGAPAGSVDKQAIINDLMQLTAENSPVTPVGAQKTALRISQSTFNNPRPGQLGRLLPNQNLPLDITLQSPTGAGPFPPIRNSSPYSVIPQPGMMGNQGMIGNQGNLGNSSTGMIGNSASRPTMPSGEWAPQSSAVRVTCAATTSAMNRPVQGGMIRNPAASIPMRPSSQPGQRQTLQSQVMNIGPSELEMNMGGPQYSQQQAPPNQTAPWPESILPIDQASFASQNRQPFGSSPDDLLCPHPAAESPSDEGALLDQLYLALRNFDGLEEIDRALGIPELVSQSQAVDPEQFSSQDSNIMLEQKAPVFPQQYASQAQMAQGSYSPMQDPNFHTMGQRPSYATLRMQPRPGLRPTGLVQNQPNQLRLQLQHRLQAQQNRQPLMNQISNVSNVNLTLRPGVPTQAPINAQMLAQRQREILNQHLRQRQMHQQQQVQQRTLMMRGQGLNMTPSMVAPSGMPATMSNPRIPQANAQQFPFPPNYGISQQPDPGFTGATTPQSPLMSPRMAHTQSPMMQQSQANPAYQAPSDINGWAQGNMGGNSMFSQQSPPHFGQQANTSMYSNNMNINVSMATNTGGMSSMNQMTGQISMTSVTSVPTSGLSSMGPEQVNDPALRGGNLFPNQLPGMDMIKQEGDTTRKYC

COc1cc(-c2nnc(S)n2Cc2ccccc2)cc(OC)c1OC
AC50 [1]: 2.51 µM (active)

CN1C(=O)/C(=C\C=C2/CCCN2C)N(C)C1=S
IC50 [2]: 23.3 µM (active) | IC50 [3]: > 100 µM (inactive) | IC50 (Prothrombin): 42.7 µM (active)

CCN(CC)c1nc(-c2ccccn2)nc(-c2ccccc2)c1C#N
EC50 [4]: > 160 µM (inconclusive) | EC50 [5]: > 38 µM (not active) | EC50 [6]: 1.57 µM (active) | EC50 [7]: 6.71 µM (active) | IC50 [8]: 3.09 µM (active) | IC50 [9]: 2.71 µM (active)

Cc1ccc(N2NC(C)(c3cccs3)N=C2S)cc1 (stereo unspecified)
EC50 [4]: 7.74 µM (active) | EC50 [5]: 1.27 µM (active) | AC50 (HeLa): > 350 µM (inactive)

COc1ccc(C(=O)Nc2cccnc2)cc1OC
AC50 [1]: 8.29 µM (active)

c1ccc(Nc2cc(-c3ccccc3)nc3ncnn23)cc1
AC50 (Escherichia coli [10]): 72 µM (active) | AC50 (Escherichia coli [11]): 18.4 µM (active)

N=C(NOC(=O)c1ccc2c(c1)OCO2)c1ccc(Cl)cc1
AC50 (HeLa): 69 µM (active)

NS(=O)(=O)c1ccc(CCNc2ncnc3sccc23)cc1
IC50 [8]: 1.06 µM (active) | IC50 [9]: 2.01 µM (active)

O=c1cc(CSc2nc3nncc-3c(O)n2-c2ccc(Br)cc2)nc2ccc(Br)cn12
EC50 [12]: 48.1 µM (not active) | EC50 [13]: 11.6 µM (not active) | CC50 [14]: 22.8 µM (active) | EC50 [15]: 15.8 µM (inactive)

COc1cc(C(=O)NN2C(=O)/C(=C3\C(=O)Nc4ccccc43)SC2=S)ccc1O
IC50 [16]: 22.2 µM (active) | IC50 [17]: 6.07 µM (active) | IC50 [18]: > 100 µM (inactive)

O=C(CS(=O)(=O)c1ccc(Cl)c(Cl)c1)Nc1ccccc1Cl
AC50 (Escherichia coli [10]): 300 µM (active) | AC50 (Escherichia coli [11]): 47.2 µM (active)

O=c1[nH]c(CSc2ncnc3sccc23)nc2cc(C(F)(F)F)ccc12
IC50 [2]: 32 µM (active) | IC50 [3]: > 100 µM (inactive) | IC50 (Prothrombin): 60.8 µM (active)

CC(C)C[C@@H](CSc1ccccc1)N1CCN(CC(C)C)CCC1=O
EC50 [19]: 41.4 µM (active) | EC50 [20]: 5.27 µM (active) | EC50 (H4): > 120 µM (not active) | EC50 [21]: 14.1 µM (inactive) | AC50 (HeLa): 147 µM (active)

Cc1cc2nc(CS)[nH]c2cc1C
IC50 [2]: 51.1 µM (active) | IC50 [3]: 9.51 µM (active) | IC50 (Prothrombin): > 100 µM (inactive)

O=C(c1ccc(Cl)cc1)C1CCCN(Cc2ccc3c(c2)OCCO3)C1 (stereo unspecified)
AC50 (Escherichia coli [10]): 190 µM (active) | EC50 [22]: > 195 µM (not active)

Cc1ccc(S(=O)(=O)Nc2ccc(O)c(Sc3nc[nH]n3)c2)cc1
IC50 [16]: > 100 µM (inactive) | AC50 [23]: 3.31 µM (active) | IC50 (Aminopeptidase N): 83.8 µM (active) | IC50 [17]: 13.8 µM (active) | IC50 [18]: > 100 µM (inactive)
